According to ChEMBL document CHEMBL4033678, “A fragment-based approach leading to the discovery of a novel binding site and the selective CK2 inhibitor CAM4066” (Bioorg Med Chem, 2017):
Calls of active or inactive are those of the source. No cut-off for these calls is given here.

Target: Casein kinase II subunit alpha (Homo sapiens) (UniProt P68400)
Sequence (P68400 whole entry, looked up): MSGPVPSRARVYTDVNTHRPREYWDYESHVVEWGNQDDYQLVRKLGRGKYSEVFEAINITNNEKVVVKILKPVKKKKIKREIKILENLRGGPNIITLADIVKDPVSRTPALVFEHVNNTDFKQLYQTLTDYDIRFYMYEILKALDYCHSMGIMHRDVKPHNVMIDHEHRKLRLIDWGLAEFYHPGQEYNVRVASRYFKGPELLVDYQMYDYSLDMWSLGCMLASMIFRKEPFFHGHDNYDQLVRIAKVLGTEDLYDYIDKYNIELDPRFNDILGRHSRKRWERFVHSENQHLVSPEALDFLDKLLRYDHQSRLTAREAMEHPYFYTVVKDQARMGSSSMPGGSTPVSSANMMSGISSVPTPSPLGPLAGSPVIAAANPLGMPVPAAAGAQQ

SMILES	ΔTm	deltaTm
Cc1ccc(O)c(C(=O)O)c1	4.1 °C	–
NNc1ccc(C(=O)O)cc1	3.8 °C	–
NC(=O)c1ccc(O)cc1	–	inactive
O=C(O)c1ccc2ccccc2n1	–	inactive
O=C(O)c1ccc2cc[nH]c2c1	3 °C	–
O=C(O)c1ccc(O)cc1O	3.2 °C	–
Nc1cc(Br)cnc1N	–	inactive
O=C(O)c1cccc(C(=O)O)n1	-0.5 °C	–
O=C(O)c1ccc(O)c(O)c1	2.4 °C	–
O=C(O)c1cc(=O)c2ccccc2o1	–	inactive
O=C(O)Cc1ccc(Cl)c(Cl)c1	0.7 °C	–
O=C(O)CCc1ccc(O)cc1	3.1 °C	–
CCCCOC(=O)N1CCC(N)CC1	0.3 °C	–
COc1cc(CC(=O)O)ccc1O	–	inactive
O=c1cc(O)c2ccccc2o1	3.8 °C	–
O=C(O)Cc1cc(=O)oc2ccccc12	–	inactive
Cc1cc(C(=O)O)ccc1N	0.5 °C	–
O=C(O)c1cc2cc(F)ccc2[nH]1	4.1 °C	–
O=C(O)C(=O)Cc1ccccc1	-0.6 °C	–
O=C(O)c1cc2cc(O)ccc2[nH]1	–	inactive
OC1CCC(N2CCNCC2)CC1 (stereo not drawn)	0.8 °C	–
O=C(O)c1ccc[nH]c1=O	-1.8 °C	–
Nc1cccc(C(=O)O)c1	0 °C	–
